Results taken from the supplement of paper PMC10307832.

Key:
Test in all cases: relative viability (nuclei count vs DMSO), 5 days (fraction); higher = more cells survive
Sunitinib + Palbociclib = compound: CCN(CC)CCNC(=O)c1c(C)[nH]c(/C=C2\C(=O)Nc3ccc(F)cc32)c1C [Sunitinib] + CC(=O)c1c(C)c2cnc(Nc3ccc(N4CCNCC4)cn3)nc2n(C2CCCC2)c1=O [Palbociclib] (partner 0.5 µM)
In short: (§1)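 After 5 days of treatment, lung cancer cells in 1536-well plates were fixed and stained in a single step (final 0.05% Triton X-100, 1% formaldehyde, 1 ug/ml Hoechst) and their nuclei counted on 4× images. Treatment had been applied by pin tool the day after seeding as one drug alone or as a fixed anchor-drug dose with five library-drug doses (not always all listed) in √10 steps. Relative viability is the nuclei count of treated wells divided by that of vehicle wells, and values are medians of duplicate plates.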

Sunitinib + Foretinib = compound: CCN(CC)CCNC(=O)c1c(C)[nH]c(/C=C2\C(=O)Nc3ccc(F)cc32)c1C [Sunitinib] + COc1cc2c(Oc3ccc(NC(=O)C4(C(=O)Nc5ccc(F)cc5)CC4)cc3F)ccnc2cc1OCCCN1CCOCC1 [Foretinib] (partner 0.25 µM)
In short: as §1

Sunitinib + OSI-027 = compound: CCN(CC)CCNC(=O)c1c(C)[nH]c(/C=C2\C(=O)Nc3ccc(F)cc32)c1C [Sunitinib] + COc1cccc2cc(-c3nc([C@H]4CC[C@H](C(=O)O)CC4)n4ncnc(N)c34)[nH]c12 [OSI-027] (partner 0.5 µM)
In short: as §1

Sunitinib = compound: CCN(CC)CCNC(=O)c1c(C)[nH]c(/C=C2\C(=O)Nc3ccc(F)cc32)c1C [Sunitinib]
In short: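 Hoechst staining, done together with fixation and permeabilisation, marked nuclei for 4× imaging and MetaXpress counting. This followed 5 days without medium change after lung cancer cell lines, kept overnight at 37 °C in 1536-well plates, were pinned with five library-drug doses (not always all listed) spaced by √10 on vehicle-anchored plates. Viability is the ratio of treated-well to vehicle-well nuclei, expressed as a median across plates. Plates passed only at control CV below 25% with at least one doubling.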

Row | Cell Line | relative viability (Sunitinib + Palbociclib; first compound 0.02 µM) | relative viability (Sunitinib + Palbociclib; first compound 0.06325 µM) | relative viability (Sunitinib + Palbociclib; first compound 0.2 µM) | relative viability (Sunitinib + Palbociclib; first compound 0.6325 µM) | relative viability (Sunitinib + Palbociclib; first compound 2 µM) | relative viability (Sunitinib + Foretinib; first compound 0.02 µM) | relative viability (Sunitinib + Foretinib; first compound 0.06325 µM) | relative viability (Sunitinib + Foretinib; first compound 0.2 µM) | relative viability (Sunitinib + Foretinib; first compound 0.6325 µM) | relative viability (Sunitinib + Foretinib; first compound 2 µM) | relative viability (Sunitinib + OSI-027; first compound 0.02 µM) | relative viability (Sunitinib + OSI-027; first compound 0.2 µM) | relative viability (Sunitinib + OSI-027; first compound 0.6325 µM) | relative viability (Sunitinib + OSI-027; first compound 2 µM) | relative viability (Sunitinib; 0.02 µM) | relative viability (Sunitinib; 0.06325 µM) | relative viability (Sunitinib; 0.2 µM) | relative viability (Sunitinib; 0.6325 µM) | relative viability (Sunitinib + OSI-027; first compound 0.06325 µM) | relative viability (Sunitinib; 2 µM)
1 | NCI-H3122 | 0.159 | 0.189 | 0.213 | 0.176 | 0.207 | 0.904 | 0.963 | 1.04 | 0.976 | 0.97 | 0.874 | 1.06 | 0.917 | 0.69 | 0.986 | 1.05 | 0.996 | 1.01 | – | –
2 | PC-3 [JPC-3] | 0.539 | 0.561 | 0.566 | 0.56 | 0.602 | – | 1.05 | 1.12 | 1.02 | 1.01 | 0.807 | 0.743 | 0.82 | 0.754 | 1.12 | 1.05 | 0.981 | 1.02 | 0.773 | 1.02
3 | PC-14 | 0.509 | 0.462 | 0.562 | 0.527 | 0.474 | 0.942 | 0.939 | 1.08 | 1 | 0.874 | 0.716 | 1.02 | 0.795 | 0.695 | 1.01 | 1.01 | 1.13 | 1.02 | 0.893 | 0.898
4 | RERF-LC-KJ | 1.07 | 1.05 | 1.03 | 0.996 | 1.21 | 0.873 | 0.907 | 0.903 | 0.87 | 0.919 | 0.55 | 0.689 | 0.626 | 0.525 | 0.956 | 1.06 | 1.08 | 0.992 | 0.574 | –
5 | SK-LU-1 | 0.381 | 0.4 | 0.4 | 0.411 | 0.356 | – | 0.901 | 1.06 | 0.834 | 0.581 | 0.323 | 0.4 | 0.348 | 0.199 | 0.972 | 1.19 | 1.1 | 1.13 | 0.387 | 0.959
6 | SK-MES-1 | 0.309 | 0.322 | 0.363 | 0.397 | 0.388 | 0.932 | 0.932 | 1.03 | 1.09 | 0.894 | 0.583 | 0.681 | 0.719 | 0.56 | 0.931 | 1.03 | 1.09 | 1.11 | 0.63 | 0.988
7 | SW 1573 | 0.412 | 0.316 | 0.42 | 0.414 | 0.397 | 0.879 | 0.928 | 0.889 | 1.09 | 0.998 | 0.617 | 0.779 | 0.781 | 0.671 | 0.947 | 1.17 | 1.26 | 1.11 | 0.938 | 0.905
8 | UMC-11 | 0.339 | 0.386 | 0.379 | 0.351 | 0.33 | 0.962 | 1.03 | 1.11 | 1.06 | 0.956 | 0.401 | 0.54 | 0.494 | 0.462 | 0.872 | 1.11 | 1.01 | 0.995 | 0.526 | 0.937
